Data reported in patent publication US8975280B2, “Deoxynojirimycin and D-arabinitol analogs and methods of using” (The Chancellor, Masters and Scholars of The University of …, priority 2006, dated 2015).
Where two headings read alike, the source gives them in different places.

Columns and labels:
[1] = target: T1, α-glucosidase I (Rattus norvegicus, UniProt O88941); assay: In vitro inhibition of purified α-glucosidase I, 2-AA-labeled FOS substrates, HPLC; format: biochemical
T1 construct: Purified α-glucosidase I and II were purified from rat liver by known methods; from tissue; host or cells: rat liver
T1 sequence (O88941 1-834): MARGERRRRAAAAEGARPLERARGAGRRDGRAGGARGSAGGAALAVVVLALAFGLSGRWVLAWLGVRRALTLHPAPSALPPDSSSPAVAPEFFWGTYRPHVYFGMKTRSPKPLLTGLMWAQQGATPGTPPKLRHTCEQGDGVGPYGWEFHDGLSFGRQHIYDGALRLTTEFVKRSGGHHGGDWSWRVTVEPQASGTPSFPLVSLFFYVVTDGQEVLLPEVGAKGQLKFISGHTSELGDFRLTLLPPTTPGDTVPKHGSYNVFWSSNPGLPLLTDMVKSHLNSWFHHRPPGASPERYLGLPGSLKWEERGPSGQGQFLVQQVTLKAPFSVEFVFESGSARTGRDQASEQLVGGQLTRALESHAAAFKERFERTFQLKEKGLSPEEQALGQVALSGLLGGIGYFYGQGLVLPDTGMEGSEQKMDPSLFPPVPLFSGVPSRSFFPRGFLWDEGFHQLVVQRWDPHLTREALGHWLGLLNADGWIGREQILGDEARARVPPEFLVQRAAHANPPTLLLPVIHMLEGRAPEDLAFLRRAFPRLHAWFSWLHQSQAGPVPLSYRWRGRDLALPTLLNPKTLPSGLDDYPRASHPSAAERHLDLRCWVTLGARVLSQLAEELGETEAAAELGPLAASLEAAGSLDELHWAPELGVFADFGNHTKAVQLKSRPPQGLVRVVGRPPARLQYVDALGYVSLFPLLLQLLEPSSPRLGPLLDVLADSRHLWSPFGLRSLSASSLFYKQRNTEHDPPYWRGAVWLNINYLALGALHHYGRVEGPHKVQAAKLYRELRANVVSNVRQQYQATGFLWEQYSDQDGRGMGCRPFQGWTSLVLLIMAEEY
Protocol: (§1) All chromatography was performed at 30° C. The first solvent, solvent A, was acetonitrile and the second solvent, solvent B, was Milli-Q water. […] Samples (<50 μl) were injected in Milli-Q water/acetonitrile (3/7, v/v). All chromatography was controlled, including data collection and processing, using Waters Empower software. Glucose units were determined, following comparison with a 2-AA-labeled glucose oligomer ladder (derived from a partial hydrolysate of dextran) external standard using Peak Time software (developed in-house).
Purified α-glucosidase I and II were purified from rat liver by known methods. […] 2-AA-labeled FOS were isolated and purified as substrates for either α-glucosidase I or II. Fluorescently-labeled substrates Glc1Man5GlcNAc1 (G1M5N), Glc2Man5GlcNAc1 (G2M5N), Glc3Man5GlcNAc1 (G3M5N) and Glc3Man9GlcNAc, (G3M9N2) were added to separate 1.5 ml centrifuge tubes with varying concentrations of imino sugar and dried under vacuum. […] Similarly, α-glucosidase II was incubated for 2 hours with G2M5N and 20 minutes with G1M5N. […] The reactions were stopped by the addition of 30 μl acetonitrile.

[2] = target: T2, α-glucosidase II (Rattus norvegicus, UniProt A0A8I6GFL3); assay: In vitro inhibition of purified α-glucosidase II, (a) and (b) activities, 2-AA-labeled FOS substrates, HPLC; format: biochemical
T2 construct: Purified α-glucosidase I and II were purified from rat liver by known methods; from tissue; host or cells: rat liver
Protocol: as §1
Purified α-glucosidase I and II were purified from rat liver by known methods. […] 2-AA-labeled FOS were isolated and purified as substrates for either α-glucosidase I or II. […] […] […] […] The reactions were stopped by the addition of 30 μl acetonitrile.

[3] = nonamannose substrate Glc3Man9GlcNAc1, read-out: α-Glucosidase I Glc3Man9GlcNAc1 IC50
[4] = pentamannose substrate Glc3Man5GlcNAc1, read-out: α-Glucosidase I Glc3Man5GlcNAc1 IC50
[5] = pentamannose substrate Glc1Man5GlcNAc1, read-out: α-Glucosidase II (b) Glc1Man5GlcNAc1 IC50
[6] = pentamannose substrate Glc2Man5GlcNAc1, read-out: α-Glucosidase II (a) Glc2Man5GlcNAc1 IC50

T2 sequence (A0A8I6ADW9 1-525 partner): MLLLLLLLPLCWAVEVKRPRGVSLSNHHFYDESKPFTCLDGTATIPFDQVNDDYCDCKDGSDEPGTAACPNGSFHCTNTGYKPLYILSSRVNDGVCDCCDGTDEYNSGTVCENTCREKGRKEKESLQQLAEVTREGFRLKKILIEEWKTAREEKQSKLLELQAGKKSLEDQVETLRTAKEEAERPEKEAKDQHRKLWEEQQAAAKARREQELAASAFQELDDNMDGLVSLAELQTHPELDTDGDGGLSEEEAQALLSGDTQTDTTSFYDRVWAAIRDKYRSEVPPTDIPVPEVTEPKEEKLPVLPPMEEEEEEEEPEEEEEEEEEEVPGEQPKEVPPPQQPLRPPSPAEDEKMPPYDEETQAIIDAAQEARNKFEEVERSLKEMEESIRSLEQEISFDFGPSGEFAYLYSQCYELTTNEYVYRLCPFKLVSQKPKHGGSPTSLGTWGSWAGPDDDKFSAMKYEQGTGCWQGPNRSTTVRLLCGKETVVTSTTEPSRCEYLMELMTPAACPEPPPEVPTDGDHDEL

| Compound | IC50 [1, 3] | IC50 [1, 4] | IC50 [2, 5] | IC50 [2, 6] | IC50 ([1]; heptamannose substrate Glc3Man7GlcNAc1, read-out: α-Glucosidase I Glc3Man7GlcNAc1 IC50) | IC50 ([2]; heptamannose substrate Glc1Man7GlcNAc1, read-out: α-Glucosidase II (b) Glc1Man7GlcNAc1 IC50) | IC50 ([2]; heptamannose substrate Glc2Man7GlcNAc1, read-out: α-Glucosidase II (a) Glc2Man7GlcNAc1 IC50) |
| --- | --- | --- | --- | --- | --- | --- | --- |
| CCCCN1C[C@H](O)[C@@H](O)[C@H](O)[C@H]1CO [NB-DNJ, N-butyl-DNJ, reference compound] | 590 ± 80 nM | 680 ± 150 nM | 53000 ± 16600 nM | 10800 ± 1100 nM | – | – | – |
| O=[N+]([O-])c1ccc(NCCCCCCN2C[C@H](O)[C@@H](O)[C@H](O)[C@H]2CO)c([N+](=O)[O-])c1 [NDP-DNJ, N—(N′-{2,4-dinitrophenyl)-6-aminohexyl)-deoxynojirimycin] | 54 ± 20 nM | 108 ± 20 nM | 1900 ± 400 nM | 6900 ± 3400 nM | 45 ± 3 nM | 10200 ± 20 nM | 18100 ± 1600 nM |
